This note sets out measurements from patent US20260365671A1, “HETEROCYCLIC COMPOUND” (Takeda Pharmaceutical Company Limited, priority 2022, published 2026).

One may read the pIC50 as −log10 of the IC50, conventionally taken in molar units. A high value points to a small IC50.

pIC50: −log10 of the molar value. Some results are limits rather than exact numbers.

In one assay the target is T1, NLRP3 inflammasome (Homo sapiens, UniProt Q96P20).
T1 construct: IL-1beta HTRF
Put plainly: IL-1β TR-FRET assay (THP-1 cells differentiated to macrophages with IFN-γ, LPS primed, ATP activated; HTRF). Type of assay: cell-based. The following applies: THP-1 macrophages, 50 ng/mL LPS priming, compound 30 min, 20 mM ATP 2 hours. The essentials: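 IL-1β release was read by HTRF after 16–24 h antibody incubation at room temperature, using supernatants from THP-1-derived macrophages (IFN-γ 25 ng/mL, LPS 50 ng/mL priming) given compound 30 min and then 20 mM ATP for 2 h. % inhibition versus concentration was fitted logistically for IC50.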
A general note: Time-resolved FRET reads energy transfer from a long-lived donor to a nearby acceptor.

The next assay deals with NF-κB pathway. Put plainly: TNF-α assay (THP-1 cells differentiated to macrophages with IFN-γ, NF-κB pathway activated with LPS; ELISA). Type of assay: cell-based, Human. As to conditions: Homo sapiens, THP-1, THP-1 macrophages, compound 30 min, 50 ng/mL LPS 3 hours. The essentials: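 TNF-α release measured by ELISA after 3 h stimulation with 50 ng/mL LPS, following 30 min compound pretreatment (37 °C, no FBS). Cells were THP-1 macrophages primed with IFN-γ 25 ng/mL for 24 h. IC50 derived by logistic curve fit.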
Background: ELISA stands for enzyme-linked immunosorbent assay.

T1 sequence (Q96P20 whole entry): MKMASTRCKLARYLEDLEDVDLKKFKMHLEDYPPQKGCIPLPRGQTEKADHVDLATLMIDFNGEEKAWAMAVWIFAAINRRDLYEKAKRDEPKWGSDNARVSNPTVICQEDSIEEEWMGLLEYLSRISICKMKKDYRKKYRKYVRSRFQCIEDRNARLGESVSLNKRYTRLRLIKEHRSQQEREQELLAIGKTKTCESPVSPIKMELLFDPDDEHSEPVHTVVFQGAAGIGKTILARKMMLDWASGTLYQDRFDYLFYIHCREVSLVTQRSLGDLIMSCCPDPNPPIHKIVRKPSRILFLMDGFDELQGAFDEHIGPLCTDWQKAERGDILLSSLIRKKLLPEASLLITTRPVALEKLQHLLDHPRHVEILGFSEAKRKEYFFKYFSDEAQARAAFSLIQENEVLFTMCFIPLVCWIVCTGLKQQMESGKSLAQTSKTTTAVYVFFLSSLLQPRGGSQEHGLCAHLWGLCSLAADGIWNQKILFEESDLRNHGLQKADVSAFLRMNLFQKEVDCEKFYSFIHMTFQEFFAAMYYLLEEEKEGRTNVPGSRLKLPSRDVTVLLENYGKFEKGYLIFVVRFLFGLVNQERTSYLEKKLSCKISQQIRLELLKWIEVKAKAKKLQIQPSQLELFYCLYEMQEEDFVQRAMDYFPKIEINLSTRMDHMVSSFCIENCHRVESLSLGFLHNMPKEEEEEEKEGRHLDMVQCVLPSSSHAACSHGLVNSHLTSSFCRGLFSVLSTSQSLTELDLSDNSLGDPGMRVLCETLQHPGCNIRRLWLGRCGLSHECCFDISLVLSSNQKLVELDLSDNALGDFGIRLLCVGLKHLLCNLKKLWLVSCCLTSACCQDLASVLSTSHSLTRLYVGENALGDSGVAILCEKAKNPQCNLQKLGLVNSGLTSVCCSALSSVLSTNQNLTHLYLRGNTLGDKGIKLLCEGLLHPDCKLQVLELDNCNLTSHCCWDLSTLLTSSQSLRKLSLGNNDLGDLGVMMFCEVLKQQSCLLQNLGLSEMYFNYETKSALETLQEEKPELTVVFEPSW

With `Cc1cc(C)c(-n2cc3sc(N[C@@H]4COCC[C@H]4O)nc3n2)c(O)c1` [Example 165, 1,5-anhydro-2,4-dideoxy-2-{[2-(2-hydroxy-4,6-dimethylphenyl)-2H-pyrazolo[3,4-d][1,3]thiazol-5-yl]amino}-D-threo-pentitol], the negative-log IC50 (pIC50) against NLRP3 inflammasome was 5.74; in the assay on NF-κB pathway, < 4.52.

With `COCC(O)CNc1nc2nn(-c3c(C)cc(C)cc3O)cc2s1` (stereo not drawn) [Example 166, 2-{5-[(2-hydroxy-3-methoxypropyl)amino]-2H-pyrazolo[3,4-d][1,3]thiazol-2-yl}-3,5-dimethylphenol], the negative-log IC50 (pIC50) is 6.12 on NLRP3 inflammasome and < 4.52 in the assay with NF-κB pathway.

Regarding `Cc1cc(C)c(-n2cc3sc(N[C@@H]4CCOC[C@H]4O)nc3n2)c(O)c1` [Example 167, 1,5-anhydro-2,3-dideoxy-3-{[2-(2-hydroxy-4,6-dimethylphenyl)-2H-pyrazolo[3,4-d][1,3]thiazol-5-yl]amino}-D-threo-pentitol], the pIC50 against NLRP3 inflammasome was 6.46; in the assay with NF-κB pathway, < 4.52.

For `Cc1cc(C)c(-n2cc3sc(NC(CO)CO)nc3n2)c(O)c1` [Example 168, 2-{[2-(2-hydroxy-4,6-dimethylphenyl)-2H-pyrazolo[3,4-d][1,3]thiazol-yl]amino}propane-1,3-diol], the negative logarithm of the IC50 (pIC50) is 6.43 on NLRP3 inflammasome and < 4.52 in the assay on NF-κB pathway.

For `Cc1cc(C)c(-n2cc3sc(NC45CC(O)(C4)C5)nc3n2)c(O)c1` [Example 169, 3-{[2-(2-hydroxy-4,6-dimethylphenyl)-2H-pyrazolo[3,4-d][1,3]thiazol-5-yl]amino} bicyclo[1.1.1]pentan-1-ol], the values for the negative logarithm of the IC50 (pIC50) against NLRP3 inflammasome and in the assay with NF-κB pathway were 6.37 and < 4.52, respectively.

Consider `Cc1cc(C)c(-n2cc3sc(NC4(CF)COC4)nc3n2)c(O)c1` [Example 170, 2-(5-{[3-(fluoromethyl)oxetan-3-yl]amino}-2H-pyrazolo[3,4-d][1,3]thiazol-2-yl)-3,5-dimethylphenol], for which the figures for the pIC50 at NLRP3 inflammasome and in the assay on NF-κB pathway were 5.70 and < 4.52, respectively.

With `Cc1cc(C)c(-n2cc3sc(NCC(O)C(F)F)nc3n2)c(O)c1` (stereo not drawn) [Example 171, 2-{5-[(3,3-difluoro-2-hydroxypropyl)amino]-2H-pyrazolo[3,4-d][1,3]thiazol-2-yl}-3,5-dimethylphenol], the results for the pIC50 on NLRP3 inflammasome and in the assay with NF-κB pathway were 6.80 and < 5.00, respectively.

For the compound `Cc1cc(C)c(-n2cc3sc(NC[C@@H](C)OC(F)F)nc3n2)c(O)c1` [Example 172, 2-(5-{[(2R)-2-(difluoromethoxy)propyl]amino}-2H-pyrazolo[3,4-d][1,3]thiazol-2-yl)-3,5-dimethylphenol], the pIC50 was 6.12 on NLRP3 inflammasome and < 5.00 with NF-κB pathway.

Turning to `Cc1cc(C)c(-n2cc3sc(NC45CC(OC(F)F)(C4)C5)nc3n2)c(O)c1` [Example 173, 2-(5-{[3-(difluoromethoxy)bicyclo[1.1.1]pentan-1-yl]amino}-2H-pyrazolo[3,4-d][1,3]thiazol-2-yl)-3,5-dimethylphenol], the negative logarithm of the IC50 (pIC50) at NLRP3 inflammasome was 5.46; with NF-κB pathway, < 5.00.

Turning to `COc1cc(C)c(-n2cc3sc(N[C@@H]4C[C@@H](F)CN(C5CC5)C4)nc3n2)c(O)c1` [Example 174, 2-(5-{[(3R,5R)-1-cyclopropyl-5-fluoropiperidin-3-yl]amino}-2H-pyrazolo[3,4-d][1,3]thiazol-2-yl)-5-methoxy-3-methylphenol], the negative-log IC50 (pIC50) is 6.96 against NLRP3 inflammasome and < 4.52 in the assay on NF-κB pathway.

As to `Cc1cc(O)c(-n2cc3sc(N[C@@H]4C[C@@H](F)CN(C)C4)nc3n2)c(CC(F)F)c1` [Example 175, 3-(2,2-difluoroethyl)-2-(5-{[(3R,5R)-5-fluoro-1-methylpiperidin-3-yl]amino}-2H-pyrazolo[3,4-d][1,3]thiazol-2-yl)-5-methylphenol], the negative logarithm of the IC50 (pIC50) on NLRP3 inflammasome was 8.43; in the assay with NF-κB pathway, < 4.52.

In the case of `Cc1cc(O)c(-n2cc3sc(N[C@@H]4C[C@@H](F)CN(C)C4)nc3n2)c(COC(F)F)c1` [Example 176, 3-[(difluoromethoxy)methyl]-2-(5-{[(3R,5R)-5-fluoro-1-methylpiperidin-3-yl]amino}-2H-pyrazolo[3,4-d][1,3]thiazol-2-yl)-5-methylphenol], the figures for the pIC50 against NLRP3 inflammasome and in the assay with NF-κB pathway were 7.66 and < 4.52, respectively.
